Literature values, collected in patent US20250213575A1, “8-HETEROCYCLIC-3-(PHENYLSULFONYL)-[1,2,3]TRIAZOLO[1,5A]QUINAZOLIN-5(4H)-ONE DERIVATIVES AS ANTI-BACTERIALS” (priority 2022, published 2025).

Columns and labels:
red blood cell (RBC) = settings: cited from earlier work
S. aureus = settings: after multiple passages with Savirin; cited from earlier work
MRSA USA300 type strain = settings: mice, applied multiple times; cited from earlier work

CC(C)c1ccc(S(=O)(=O)c2nnn3c2nc(O)c2ccccc23)cc1 [Savirin]
exotoxin-induced red blood cell (RBC) lysis (red blood cell (RBC)): inhibited | resistance development (S. aureus): No resistance was developed | abscess size and dermonecrosis (MRSA USA300 type strain): significant reduction
